In patent US20230114177A1, “NOVEL DEUTERIUM-SUBSTITUTED PYRIMIDINE DERIVATIVE AND PHARMACEUTICAL COMPOSITION COMPRISING SAME” (ONCOBIX CO., LTD., priority 2019, published 2023):

Assays:
BaF3 (de119/T790M/C797S) = assay: Measurement of inhibitory effect on cancer cell growth (GI50); assay type: cell-based; details: for GI50: Mus musculus, concentration to inhibit 50% of cell growth, BaF3 cells with EGFR de119/T790M/C797S; for activity against cancer cell lines expressing the C797S mutant epidermal growth factor receptor: summary in words of Table 1
[1] = Pharmacokinetic evaluation in rats; assay type: in vivo; details: single dose; for absolute absorption rate: compared with hydrogen-substituted reference substance (FIGS. 1 to 4)
Method: Pharmacokinetic tests were carried out in rats as follows for the compounds obtained from Examples 1 and 2 above and the compound of Example 2 in which deuterium was substituted with hydrogen (hydrogen-substituted reference substance).
After the test substances were prepared to 2.5 or 5 mg/mL using WFI (water for injection), the rats were administered as a single dose at a prescribed dose (10 mL/kg), and blood was collected at a predetermined time (0, 0.25, 0.5, 1, 2, 4, 6, 8, 10, 24 hours), and then plasma was separated. Analysis of the drug was carried out using HPLC (XBridge column C18, Waters, mobile phase of 0.1% formic acid:acetonitrile (30:70, %/%)) and MS/MS (ESI positive, MRM), and concentrations of 5, 50, 100, 500, 1,000, and 5,000 ng/ml were prepared and measured by mixing rat blank plasma and each commercial standard solution at a ratio of 9:1. In addition, QC sample preparations were prepared at concentrations of 100, 750, and 2,500 ng/ml by mixing rat blank plasma and QC standard solution in a 9:1 ratio. As for the pretreatment method, 100 μl of the plasma sample was transferred to a centrifuge tube, and 10 μl of the internal standard solution and 300 μl of methanol were added thereto, and then mixed for about 30 seconds. The tube was centrifuged for about 5 minutes at a rotation speed of 12,000 rpm (4° C.) using a centrifuge, and the supernatant was taken, transferred to an LC vial and then injected into the device. Thereafter, the concentration of the drug in rat plasma was quantified by applying the previously verified assay. For pharmacokinetic parameters, WinNonlin 5.2 (Pharsight, USA) program was used, and AUC0-t, AUC0-∞, Cmax, Tmax, and t1/2 were calculated by noncompartment modeling (best fit). Pharmacokinetic parameter results were expressed as mean and standard deviation (SD), and statistically processed using the SPSS program (Statistical Package for the Social Sciences, 10.0K, USA).

C=CC(=O)Nc1cc(Nc2nccc(-c3cn(C)c4ccccc34)n2)c(OC)cc1N(C)CCN(C)C [Osimertinib, osimertinib, reference compound]
GI50 (BaF3 (de119/T790M/C797S)): > 1000 nM | activity against cancer cell lines expressing the C797S mutant epidermal growth factor receptor (BaF3 (de119/T790M/C797S)): poor activity

[2H]C([2H])([2H])N(c1ccccc1Nc1nc(Nc2ccc(N3CCC(N4CCN(C)CC4)CC3)cc2OC)ncc1Cl)S(C)(=O)=O [Example 2]
GI50 (BaF3 (de119/T790M/C797S)): ≤ 500 nM | activity against cancer cell lines expressing the C797S mutant epidermal growth factor receptor (BaF3 (de119/T790M/C797S)): excellent activity | relative absorption rate compared to the hydrogen-substituted reference substance [1]: 111.4% | absolute absorption rate [1]: equivalent to or greater than the control drug

[2H]C([2H])([2H])N1CCN(C2CCN(c3ccc(Nc4ncc(Cl)c(Nc5ccccc5N(C)S(C)(=O)=O)n4)c(OC)c3)CC2)CC1 [Example 1, N-(2-((5-Chloro-2-((2-Methoxy-4-(4-(4-(Methyl-d3)Piperazin-1-Yl)Piperidin-1-Yl)Phenyl)Amino)Pyrimidin-4-Yl)Amino)Phenyl)-N-Methylmethanesulfonamide]
GI50 (BaF3 (de119/T790M/C797S)): ≤ 500 nM | activity against cancer cell lines expressing the C797S mutant epidermal growth factor receptor (BaF3 (de119/T790M/C797S)): excellent activity | absolute absorption rate [1]: equivalent to or greater than the control drug
